Here are results for 7 molecules from ChEMBL document CHEMBL5370582, “Heterolactone and Heterolactams A-M, Verticillane Diterpenoids with Anti-Inflammatory and Hepatoprotective Activities from the Soft Coral Heteroxenia ghardaqensis” (J Nat Prod, 2023).

Calls of active or inactive are those of the source. The rule behind the calls is not given here.

One assay is filed under the species Danio rerio. Description: Hepatoprotective activity against isoniazid/alcohol-induced liver injury in transgenic Zebrafish larvae at 50 uM incubated for 72 hrs by fluorescence microscopy. It counts as functional, organism-based.
Conditions: not given
Turning to `CC(C)CCN1C(=O)[C@@]2(C)CC[C@H]3CC[C@H](C)CC(=O)C[C@H](C)/C=C\1[C@]2(O)C3(C)C`, the outcome was Active.

Regarding `C[C@H]1CC[C@@H]2CCC3=C(C2(C)C)[C@@](O)(C[C@@H](C)CC(=O)C1)NC3=O`, the outcome was Active.

`C[S+](CC[C@H](N)C(=O)[O-])C[C@H]1O[C@@H](n2cnc3c(N)ncnc32)[C@H](O)[C@@H]1O` (stereo partly drawn): the result was Active.

For the molecule `C[C@H]1CC[C@@H]2CCC3=C([C@@H](C[C@@H](C)CC(=O)C1)N(CCO)C3=O)C2(C)C`, the outcome was Active.

A further assay is filed under the species Danio rerio. The experiment in a line: Anti-inflammatory activity against CuSO4-induced inflammatory response in transgenic Zebrafish larvae assessed as reduction in number of macrophages at 20 uM pretreated for 2 hrs followed by CuSO4-stimulation and measured after 1 hr by fluorescence microscopy. The conditions noted are these: time 3.0 hrs. It counts as functional, organism-based.
With `COc1ccc2c(c1)c(CC(=O)O)c(C)n2C(=O)c1ccc(Cl)cc1`, the outcome was Active.

Regarding `C[C@H]1CC[C@@H]2CCC3=C(C2(C)C)[C@@](O)(C[C@@H](C)CC(=O)C1)N(CCc1ccccc1)C3=O`, the outcome was Active.

Regarding `C[C@H]1CC[C@@H]2CCC3=C([C@@H](C[C@@H](C)CC(=O)C1)N(CCc1ccccc1)C3=O)C2(C)C`, the outcome was Active.

For the molecule `C[C@H]1CC[C@@H]2CCC3=C([C@@H](C[C@@H](C)CC(=O)C1)N(CCO)C3=O)C2(C)C`, the outcome was Active.
